Measured values reported in ChEMBL document CHEMBL5321294, “Evolution of Slow-Binding Inhibitors Targeting Histone Deacetylase Isoforms” (J Med Chem, 2023).
Non-standard residues stand in square brackets, D forms with d. Residues, ends and D or L forms follow the SMILES beside them. *: point of attachment. Asu = N[C@@H](CCCCCC(=O)O)C(=O)O; dPip = O=C(O)[C@H]1CCCCN1; NHOH = ON*

Legend:
Histone deacetylase 2 = Histone deacetylase 2 (Homo sapiens, UniProt Q92769); assay: Binding affinity to HDAC2 (unknown origin) assessed as inhibition constant(ki,1)
Chain of Histone deacetylase 2 (Q92769 whole entry): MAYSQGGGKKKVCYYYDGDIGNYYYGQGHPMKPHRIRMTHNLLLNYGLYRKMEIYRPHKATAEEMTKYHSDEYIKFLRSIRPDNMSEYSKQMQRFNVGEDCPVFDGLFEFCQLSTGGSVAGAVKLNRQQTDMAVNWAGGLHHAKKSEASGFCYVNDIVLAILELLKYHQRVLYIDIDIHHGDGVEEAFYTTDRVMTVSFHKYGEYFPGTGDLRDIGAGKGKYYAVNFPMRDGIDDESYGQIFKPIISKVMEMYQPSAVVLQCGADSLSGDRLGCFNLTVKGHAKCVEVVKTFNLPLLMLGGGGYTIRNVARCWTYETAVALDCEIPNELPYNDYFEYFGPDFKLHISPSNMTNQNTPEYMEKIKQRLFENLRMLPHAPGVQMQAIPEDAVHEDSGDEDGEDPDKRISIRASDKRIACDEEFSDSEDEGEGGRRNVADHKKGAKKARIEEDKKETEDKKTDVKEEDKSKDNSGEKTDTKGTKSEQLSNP

[1] = biological target: T1, Protein deacetylase HDAC6 (Homo sapiens) (UniProt Q9UBN7); assay: Binding affinity to recombinant human HDAC6 using Ac-Leu-Gly-Lys(Ac)-AMC as substrate measured after 60 mins assessed as binding constant (k2) by fluorescence based assay
T1 sequence (whole entry): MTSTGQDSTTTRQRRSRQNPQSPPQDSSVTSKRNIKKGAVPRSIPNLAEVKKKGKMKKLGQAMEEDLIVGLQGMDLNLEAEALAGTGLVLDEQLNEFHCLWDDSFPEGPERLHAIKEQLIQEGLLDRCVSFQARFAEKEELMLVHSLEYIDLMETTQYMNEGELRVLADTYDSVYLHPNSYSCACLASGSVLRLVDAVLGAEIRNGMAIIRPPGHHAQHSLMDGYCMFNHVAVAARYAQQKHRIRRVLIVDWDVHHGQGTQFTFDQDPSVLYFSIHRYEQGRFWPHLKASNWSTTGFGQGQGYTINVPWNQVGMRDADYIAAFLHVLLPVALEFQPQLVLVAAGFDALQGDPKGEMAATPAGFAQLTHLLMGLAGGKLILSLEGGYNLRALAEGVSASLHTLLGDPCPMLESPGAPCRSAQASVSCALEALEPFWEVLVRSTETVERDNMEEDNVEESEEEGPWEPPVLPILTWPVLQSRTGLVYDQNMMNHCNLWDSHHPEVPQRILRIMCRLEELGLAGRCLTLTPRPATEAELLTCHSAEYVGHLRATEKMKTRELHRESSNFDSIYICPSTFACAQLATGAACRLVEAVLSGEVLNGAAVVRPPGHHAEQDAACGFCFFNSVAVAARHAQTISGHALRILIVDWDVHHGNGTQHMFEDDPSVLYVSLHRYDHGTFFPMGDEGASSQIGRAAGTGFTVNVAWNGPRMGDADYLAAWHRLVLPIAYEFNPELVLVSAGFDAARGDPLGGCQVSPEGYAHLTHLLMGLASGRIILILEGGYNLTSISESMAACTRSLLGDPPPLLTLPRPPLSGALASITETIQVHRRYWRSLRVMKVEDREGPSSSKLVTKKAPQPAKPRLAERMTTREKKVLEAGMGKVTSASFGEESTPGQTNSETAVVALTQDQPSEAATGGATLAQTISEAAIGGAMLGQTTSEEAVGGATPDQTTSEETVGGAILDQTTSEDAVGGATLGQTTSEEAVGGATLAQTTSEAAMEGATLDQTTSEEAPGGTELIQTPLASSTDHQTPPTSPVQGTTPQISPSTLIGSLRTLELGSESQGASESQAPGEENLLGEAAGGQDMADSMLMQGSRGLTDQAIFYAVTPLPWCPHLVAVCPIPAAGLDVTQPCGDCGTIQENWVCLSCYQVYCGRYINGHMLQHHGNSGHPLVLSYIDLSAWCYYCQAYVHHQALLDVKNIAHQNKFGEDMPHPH

Histone deacetylase 1 = Histone deacetylase 1 (Homo sapiens, UniProt Q13547); assay: Binding affinity to HDAC1 (unknown origin) assessed as inhibition constant(ki,1)
Chain of Histone deacetylase 1 (Q13547 whole entry): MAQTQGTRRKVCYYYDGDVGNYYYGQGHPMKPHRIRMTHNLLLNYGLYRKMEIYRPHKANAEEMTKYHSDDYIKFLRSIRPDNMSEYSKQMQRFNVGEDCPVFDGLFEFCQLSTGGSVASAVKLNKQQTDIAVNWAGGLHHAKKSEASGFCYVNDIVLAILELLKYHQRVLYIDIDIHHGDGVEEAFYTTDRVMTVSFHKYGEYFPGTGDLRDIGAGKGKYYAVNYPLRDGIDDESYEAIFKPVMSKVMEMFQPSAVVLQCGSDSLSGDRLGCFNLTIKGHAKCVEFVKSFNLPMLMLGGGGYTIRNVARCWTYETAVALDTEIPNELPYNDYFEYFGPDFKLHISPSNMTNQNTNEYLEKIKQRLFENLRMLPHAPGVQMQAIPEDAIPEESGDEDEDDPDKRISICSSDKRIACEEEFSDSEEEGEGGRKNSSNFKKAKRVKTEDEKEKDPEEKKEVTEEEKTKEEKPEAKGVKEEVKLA

Histone deacetylase 3 [2] = biological target: T2, Histone deacetylase 3 (Homo sapiens, UniProt O15379); assay: Binding affinity to HDAC3 (unknown origin) assessed as binding constant(k2)
T2 sequence (O15379 whole entry): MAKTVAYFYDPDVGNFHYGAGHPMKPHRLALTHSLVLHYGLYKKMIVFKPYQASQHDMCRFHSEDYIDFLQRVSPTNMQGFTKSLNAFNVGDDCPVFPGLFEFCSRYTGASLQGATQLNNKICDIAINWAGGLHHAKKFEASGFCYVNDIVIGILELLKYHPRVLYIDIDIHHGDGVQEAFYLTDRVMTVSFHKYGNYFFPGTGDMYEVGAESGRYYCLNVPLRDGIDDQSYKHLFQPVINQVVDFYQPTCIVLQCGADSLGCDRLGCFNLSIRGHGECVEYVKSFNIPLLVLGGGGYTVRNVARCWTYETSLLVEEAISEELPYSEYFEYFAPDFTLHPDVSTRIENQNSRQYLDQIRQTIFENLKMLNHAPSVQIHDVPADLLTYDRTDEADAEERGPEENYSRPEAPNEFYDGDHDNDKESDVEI

[3] = biological target: T3, Histone deacetylase 11 (Homo sapiens) (UniProt Q96DB2); assay: Binding affinity to human HDAC11 assessed as binding constant (k-2)
T3 sequence (whole entry): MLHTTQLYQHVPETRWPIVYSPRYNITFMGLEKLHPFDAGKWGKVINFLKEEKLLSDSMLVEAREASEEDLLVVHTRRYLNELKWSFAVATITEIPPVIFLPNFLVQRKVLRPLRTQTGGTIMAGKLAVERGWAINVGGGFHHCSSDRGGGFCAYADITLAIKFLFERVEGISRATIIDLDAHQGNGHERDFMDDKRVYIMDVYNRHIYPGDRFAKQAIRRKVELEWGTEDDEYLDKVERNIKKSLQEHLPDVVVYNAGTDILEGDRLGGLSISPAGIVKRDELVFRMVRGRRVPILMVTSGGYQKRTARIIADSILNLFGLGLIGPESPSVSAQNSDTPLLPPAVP

Histone deacetylase 3 [4] = biological target: T2, Histone deacetylase 3; assay: Binding affinity to HDAC3 (unknown origin) assessed as inhibition constant
[5] = biological target: T3, Histone deacetylase 11 (Homo sapiens); assay: Binding affinity to human HDAC11 assessed as binding constant (k2)
Histone deacetylase 3 [6] = biological target: T2, Histone deacetylase 3; assay: Binding affinity to HDAC3 (unknown origin) assessed as binding constant(k-2)
Histone deacetylase 3 [7] = biological target: T2, Histone deacetylase 3; assay: Binding affinity to HDAC3 (unknown origin) assessed as inhibition constant(ki,1)
[8] = biological target: T4, Protein deacetylase HDAC6 (Homo sapiens, UniProt Q9UBN7); assay: Binding affinity to recombinant human HDAC6 using Ac-Leu-Gly-Lys(Ac)-AMC as substrate measured after 60 mins assessed as inhibition constant by fluorescence based assay
T4 sequence (Q9UBN7 whole entry): T1 sequence (whole entry)

Histone deacetylase 11 = biological target: T5, Histone deacetylase 11 (Homo sapiens, UniProt Q96DB2); assay: Binding affinity to human HDAC11 assessed as inhibition constant (ki,1)
T5 sequence (Q96DB2 whole entry): T3 sequence (whole entry)

Histone deacetylase 3 [9] = biological target: T2, Histone deacetylase 3; assay: Binding affinity to HDAC3 (unknown origin) assessed as residence time
[10] = biological target: T1, Protein deacetylase HDAC6 (Homo sapiens); assay: Binding affinity to recombinant human HDAC6 using Ac-Leu-Gly-Lys(Ac)-AMC as substrate measured after 60 mins assessed as binding constant (k-2) by fluorescence based assay
[11] = biological target: T4, Protein deacetylase HDAC6; assay: Binding affinity to recombinant human HDAC6 using Ac-Leu-Gly-Lys(Ac)-AMC as substrate measured after 60 mins assessed as inhibition constant (ki,1) by fluorescence based assay
[12] = biological target: T1, Protein deacetylase HDAC6 (Homo sapiens); assay: Binding affinity to recombinant human HDAC6 using Ac-Leu-Gly-Lys(Ac)-AMC as substrate assessed as residence time

Ki (Histone deacetylase 2): 0.35 nM
K [1]: 0.17 min⁻¹
Ki (Histone deacetylase 1): 0.32 nM
K (Histone deacetylase 3 [2]): 0.158 min⁻¹
K [3]: 0 min⁻¹
Ki (Histone deacetylase 3 [4]): 0.04 nM
K [5]: 0.73 min⁻¹
K (Histone deacetylase 3 [6]): 0.009 min⁻¹
Ki (Histone deacetylase 3 [7]): 1.6 nM
Ki [8]: ~3.6 nM
Ki (Histone deacetylase 11): 18 nM
TIME (Histone deacetylase 3 [9]): 1.85 h
K [10]: 0.01 min⁻¹
Ki [11]: 23 nM
TIME [12]: 1.67 h
SMILES: CC[C@H](C)[C@@H]1NC(=O)[C@H](Cc2c[nH]c3ccccc23)NC(=O)[C@H](CCCCCC(=O)NO)NC(=O)[C@H]2CCCCN2C1=O (cyclo([Asu](NHOH)WI[dPip]))
